Measurements from PubChem BioAssay (NCI).
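Protocol summary: plate cells (96-well), add compound at 5 concentrations, incubate 48 h, interpolate endpoints linearly. GI50 = concentration required for 50% inhibition of growth. TGI denotes the concentration required for complete inhibition of growth.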

What was measured:
Assay in all cases: NCI tumour cell line growth inhibition, 48 h
XF 498 CNS = system: XF 498 CNS
LXFL 529 NSCLC = system: LXFL 529 NSCLC
SNB-78 CNS = system: SNB-78 CNS
DLD-1 colon = system: DLD-1 colon
KM20L2 colon = system: KM20L2 colon
HOP-18 NSCLC = system: HOP-18 NSCLC
RXF-631 renal = system: RXF-631 renal
MDA-N = system: MDA-N
P388/ADR leukemia = system: P388/ADR leukemia
SN12K1 renal = system: SN12K1 renal
P388 leukemia = system: P388 leukemia

| Structure (SMILES) | TGI (XF 498 CNS) [µM] | TGI (LXFL 529 NSCLC) [µM] | TGI (SNB-78 CNS) [µM] | TGI (DLD-1 colon) [µM] | TGI (KM20L2 colon) [µM] | TGI (HOP-18 NSCLC) [µM] | TGI (RXF-631 renal) [µM] | TGI (MDA-N) [µM] | further results |
| --- | --- | --- | --- | --- | --- | --- | --- | --- | --- |
| Cc1ccc(-c2nnc(-c3nn(-c4ccccc4)c4nc5ccccc5nc34)o2)cc1 | 25.4 | 35.7 | > 100 | > 100 | > 100 | 65.2 |  |  |  |
| Cc1cccc(C)c1NC(=O)/C(=N/NC(N)=S)C(C)C(=O)c1ccc(Cl)cc1 (stereo not given) | > 100 | > 100 | > 100 | > 100 | > 100 | > 100 | > 100 |  |  |
| CCN(CC)CC1c2ccccc2C(CNc2ccccc2)N1C (stereo not given) | > 100 | > 100 | > 100 | > 100 | > 100 |  | > 100 |  |  |
| COc1ccccc1-c1cc(=O)c2cc(C)cnc2[nH]1 |  |  |  |  |  |  |  | 24.9 | GI50 (MDA-N): 4.41 µM |
| NC(=O)c1csc(C2OC(CO)C(O)C2O)n1 (stereo not given) | 732 |  | > 9480 | > 7200 | > 9200 | > 3980 |  | > 6490 | TGI (P388/ADR leukemia): 84.1 µM; TGI (SN12K1 renal): > 9220 µM; GI50 (MDA-N): 59.5 µM; TGI (P388 leukemia): 159 µM |
| COC(=O)C1(C)CCc2c(OC)ccc(OC)c2C1=O (stereo not given) | > 100 | > 100 | > 100 | > 100 |  |  | > 100 |  |  |
| COc1cc(C(=O)C/C(CCC(=O)Nc2ccccc2[N+](=O)[O-])=N\NC(N)=O)ccc1O | > 100 |  | > 100 |  | > 100 | > 100 | > 100 |  |  |
| Fc1ccc(C2SCc3nc4ccccc4n32)c(F)c1 (stereo not given) |  |  | > 100 | > 100 | > 100 | > 100 | > 100 |  |  |
| CS(=O)(=O)c1ccc(-c2cc(-c3ccc(S(C)(=O)=O)cc3)[n+](-c3cc(-c4ccc(S(C)(=O)=O)cc4)c([O-])c(-c4ccc(S(C)(=O)=O)cc4)c3)c(-c3ccc(S(C)(=O)=O)cc3)c2)cc1 |  | > 100 | > 100 | > 100 | > 100 | > 100 | > 100 |  |  |
| O=C1OC(Cc2ccccc2)(N2CCCC2=O)C1c1ccccc1 (stereo not given) | 88.5 | > 100 | > 100 | > 100 | > 100 |  |  |  |  |
| CC/C=C\C/C=C\C/C=C\CCCCCCCC(=O)OCC(O)CO (stereo not given) | > 100 | > 68.9 | > 73.8 | > 100 | > 100 | > 100 |  |  |  |
| O=C(/C=C/c1ccccc1)CCN1CCOCC1 | 29.1 | 8.43 | 47.3 | 22.1 | 31.2 | 32.2 |  | 30.1 | TGI (P388/ADR leukemia): 7.76 µM; TGI (SN12K1 renal): 31 µM; TGI (P388 leukemia): > 27.2 µM |
| O=C1CC(c2c[nH]c3ccccc23)C(=O)N1 (stereo not given) | > 100 | > 100 | > 100 | > 100 | > 100 |  | > 100 |  |  |
| NC(CSC1c2ccccc2-c2ccccc21)C(=O)O (stereo not given) |  |  |  |  |  |  |  | > 100 |  |
| Nc1nc(OCc2ccccc2)c2[nH]cnc2n1 |  | 400 | 400 | 400 | 400 | 335 | 309 |  |  |
| O=c1nc(NC2CCCCO2)ccn1CCO (stereo not given) | > 100 | > 100 | > 100 | > 100 | > 100 | > 100 | > 100 |  |  |
| O=C1c2ccccc2-c2cc([N+](=O)[O-])c([N+](=O)[O-])cc21 |  |  |  |  |  |  |  | 5.18 |  |
| NNC(=O)CS(=O)(=O)Nc1ncccn1 |  |  |  |  |  |  |  | > 100 |  |

| Structure (SMILES) | TGI (XF 498 CNS) [µM] | TGI (LXFL 529 NSCLC) [µM] | TGI (SNB-78 CNS) [µM] | TGI (DLD-1 colon) [µM] | TGI (KM20L2 colon) [µM] | TGI (HOP-18 NSCLC) [µM] | TGI (RXF-631 renal) [µM] | TGI (MDA-N) [µM] | further results |
| --- | --- | --- | --- | --- | --- | --- | --- | --- | --- |
| COc1cc2c(cc1C1COc3cc4occc4cc3C1=O)OCO2 (stereo not given) |  |  |  |  |  |  |  | > 100 |  |
| COC1C=COC2(C)Oc3c(C)c(O)c4c(c3C2=O)/C(=N/C2CCC(O)OC2C)C=C(NC(=O)/C(C)=C\C(=O)C2CC2C(O)C(C)C(O)C(C)C(OC(C)=O)C1C)C4=O (stereo not given) |  |  |  |  |  |  |  | 3.83 |  |
| O=C1NC(=O)C2C(=O)NC(=O)C1C2c1c(Cl)cccc1Cl (stereo not given) | > 100 | > 100 | > 100 | > 60.8 | > 83.6 | > 100 | > 100 |  |  |
| O=C1OC(=O)C(=C\c2ccc3c(c2)OCO3)/C1=C/c1ccc2c(c1)OCO2 |  |  |  |  |  |  |  | > 100 |  |
| COC(=O)C1CC2CC(=NNC(N)=O)CC2C1 (stereo not given) | > 100 | > 100 | > 100 | > 100 |  |  |  |  |  |
| COc1ccc(-c2cc(Cc3cccs3)c(=O)[nH]n2)cc1 |  | > 100 | > 100 |  | > 100 |  |  |  |  |
| N#CC(=C1C=CC(=NO)C=C1)c1ccc(Cl)cc1 |  | 18 |  | 39 | > 100 | > 100 |  |  |  |
| O=C(NC1CCCCC1)NS(=O)(=O)c1ccc2c(c1)CCC2 | > 100 |  |  | > 100 |  | > 100 | > 100 |  |  |
| N#CC(C#N)=C1NC(=O)CC(=O)N1 | > 100 | > 100 | > 100 | > 100 | > 100 |  |  |  |  |
| CC1(O)C=CC(=O)C=C1 | > 65.1 | 26.4 | 97.2 | 28.2 | > 100 | > 100 |  |  |  |
| Cc1ccc2c(C3Cc4ccccc4N3C(=O)/C=C\C(=O)O)c(C)[nH]c2c1 (stereo not given) |  | 42.9 | 45.3 | > 100 | > 100 |  |  |  |  |
| Clc1ccc(Nc2nc3ccccc3nc2-c2cccs2)cc1Cl | > 100 | > 100 | > 100 | > 100 | > 100 | > 100 | > 100 |  |  |
| O=C(O)CN1CCN(CC(=O)O)CC(=O)[O][Hg][O]C(=O)C1 |  |  |  |  |  |  |  | 31.7 | GI50 (MDA-N): 16.7 µM |
| O=C1C(=C([O-])c2ccccc2)C(=O)c2ccccc21.O=C1C(=C([O-])c2ccccc2)C(=O)c2ccccc21.[Fe+2] |  |  |  | > 100 |  | > 100 |  |  | GI50 (DLD-1 colon): > 100 µM; GI50 (HOP-18 NSCLC): > 100 µM |
| CCCP1(=O)C=C(C)C(=C(Cl)Cl)C(C)=C1 (stereo not given) |  | > 100 | > 100 | > 100 | 47.1 | > 100 |  |  |  |
| CCOC(=O)C1C(=S)NC(=O)C1C#N (stereo not given) |  | > 100 |  | > 100 | > 100 | > 100 | > 100 |  |  |
| CC(=O)Nc1ccc(SC#N)c2c(NC(C)=O)cccc12 |  | > 73 | > 100 | > 100 | > 100 | > 100 | > 100 |  |  |
| O=C(O)c1ccc(C(=O)c2ccccc2)c(C(=O)O)c1 |  |  |  |  |  |  |  | > 100 |  |
